Experimental data taken from ChEMBL document CHEMBL1125503, “Preparation and structure-activity relationships of simplified analogues of the antifungal agent cilofungin: a total synthesis approach” (J Med Chem, 1992).
Values after ≈ are worked out from the molar mass of the structure shown. Starred links: 1 amine or outer side, 2 acyl side, 3 side chain; linkers in the order of their positions; H or OH if unused. Positions of bridges follow the written chain, without caps; N, C: chain ends. Non-standard residues stand in square brackets, D forms with d. Residues, ends and D or L forms follow the SMILES beside them. *: point of attachment. Orn(4R-OH,5R-OH) = O=C([C@H](C[C@@H](O)[C@@H](O)N[*:3])N[*:1])[*:2]; hTyr(3S-OH,4S-OH) = N[C@H](C(=O)O)[C@H](O)[C@@H](O)c1ccc(O)cc1; Pro(3S-OH,4S-Me) = C[C@H]1CN[C@H](C(=O)O)[C@H]1O; Benzoyl(4-octyloxy) = CCCCCCCCOc1ccc(C(=O)*)cc1; hTyr = N[C@@H](CCc1ccc(O)cc1)C(=O)O; Hyp = O=C(O)[C@@H]1C[C@@H](O)CN1; Orn = NCCC[C@H](N)C(=O)O

Key:
Candida parapsilosis = experiment: Antifungal activity on Candida parapsilosis MY1010; type: functional; conditions: Lodderomyces parapsilosis
Candida tropicalis = experiment: Antifungal activity on Candida tropicalis MY101; type: functional
Candida albicans [1] = experiment: Concentration inhibiting Candida beta-1,3-glucan synthesis was determined in a Candida albicans cell culture; type: functional, organism-based
Candida albicans [2] = experiment: Antifungal activity on Candida albicans MY1028.; type: functional
Candida albicans [3] = experiment: Antifungal activity on Candida albicans MY1055.; type: functional
Candida albicans [4] = experiment: Antifungal activity on Candida albicans MY1208.; type: functional

| SMILES | IC50 (Candida albicans [1]) | MFC (Candida parapsilosis) | MFC (Candida tropicalis) | MFC (Candida albicans [2]) | MFC (Candida albicans [3]) | MFC (Candida albicans [4]) |
| --- | --- | --- | --- | --- | --- | --- |
| CCCCCCCCOc1ccc(C(=O)N[C@H]2CCCNC(=O)[C@@H]3[C@@H](O)[C@@H](C)CN3C(=O)[C@H]([C@@H](C)O)NC(=O)[C@H](Cc3ccc(O)cc3)NC(=O)[C@@H]3C[C@@H](O)CN3C(=O)[C@H]([C@@H](C)O)NC2=O)cc1 ({Benzoyl(4-octyloxy)}-[Orn]T[Hyp]YT[Pro(3S-OH,4S-Me)]; lactam 1-C) | – | > 128 µg/mL | > 128 µg/mL | > 128 µg/mL | > 128 µg/mL | > 128 µg/mL |
| CCCCCCCCOc1ccc(C(=O)N[C@H]2C[C@@H](O)[C@@H](O)NC(=O)[C@@H]3[C@@H](O)[C@@H](C)CN3C(=O)[C@H]([C@@H](C)O)NC(=O)[C@H]([C@H](O)[C@@H](O)c3ccc(O)cc3)NC(=O)[C@@H]3C[C@@H](O)CN3C(=O)[C@H]([C@@H](C)O)NC2=O)cc1 [CILOFUNGIN] ({Benzoyl(4-octyloxy)}-[Orn(4R-OH,5R-OH)]T[Hyp][hTyr(3S-OH,4S-OH)]T[Pro(3S-OH,4S-Me)]; lactam 1-C) | 1 µM | 8 µg/mL (≈ 7.77 µM) | 0.5 µg/mL (≈ 0.485 µM) | 0.5 µg/mL (≈ 0.485 µM) | 0.5 µg/mL (≈ 0.485 µM) | 2 µg/mL (≈ 1.94 µM) |
| CCCCCCCCOc1ccc(C(=O)N[C@H]2CCCNC(=O)[C@@H]3CCCN3C(=O)[C@H]([C@@H](C)O)NC(=O)[C@H](CCc3ccc(O)cc3)NC(=O)[C@@H]3CCCN3C(=O)[C@H]([C@@H](C)O)NC2=O)cc1 ({Benzoyl(4-octyloxy)}-[Orn]TP[hTyr]TP; lactam 1-C) | > 10 µM | > 128 µg/mL | 4 µg/mL (≈ 4.35 µM) | – | 4 µg/mL (≈ 4.35 µM) | 4 µg/mL (≈ 4.35 µM) |
| CCCCCCCCOc1ccc(C(=O)N[C@H]2CCCNC(=O)[C@@H]3C[C@@H](O)CN3C(=O)[C@H]([C@@H](C)O)NC(=O)[C@H](Cc3ccc(O)cc3)NC(=O)[C@@H]3C[C@@H](O)CN3C(=O)[C@H]([C@@H](C)O)NC2=O)cc1 ({Benzoyl(4-octyloxy)}-[Orn]T[Hyp]YT[Hyp]; lactam 1-C) | > 10 µM | > 128 µg/mL | > 128 µg/mL | > 128 µg/mL | > 128 µg/mL | > 128 µg/mL |
| C[C@@H](O)[C@@H]1NC(=O)[C@H](CCc2ccc(O)cc2)NC(=O)[C@@H]2C[C@@H](O)CN2C(=O)[C@H]([C@@H](C)O)NC(=O)[C@@H](N)CCCNC(=O)[C@H]([C@@H](C)O)NC1=O (H-[Orn]T[Hyp][hTyr]TT; lactam 1-C) | > 10 µM | > 128 µg/mL | 4 µg/mL (≈ 5.65 µM) | 8 µg/mL (≈ 11.3 µM) | 8 µg/mL (≈ 11.3 µM) | 8 µg/mL (≈ 11.3 µM) |

Now from value to compound, other results behind:

| IC50 (Candida albicans [1]) | SMILES | MFC (Candida parapsilosis) | MFC (Candida tropicalis) | MFC (Candida albicans [2]) | MFC (Candida albicans [3]) | MFC (Candida albicans [4]) |
| --- | --- | --- | --- | --- | --- | --- |
| 10 µM | CCCCCCCCOc1ccc(C(=O)N[C@H]2CCCNC(=O)[C@@H]3C[C@@H](O)CN3C(=O)[C@H]([C@@H](C)O)NC(=O)[C@H](CCc3ccc(O)cc3)NC(=O)[C@@H]3C[C@@H](O)CN3C(=O)[C@H]([C@@H](C)O)NC2=O)cc1 ({Benzoyl(4-octyloxy)}-[Orn]T[Hyp][hTyr]T[Hyp]; lactam 1-C) | > 128 µg/mL | 8 µg/mL (≈ 8.4 µM) | 8 µg/mL (≈ 8.4 µM) | 8 µg/mL (≈ 8.4 µM) | 8 µg/mL (≈ 8.4 µM) |
| 10 µM | CCCCCCCCOc1ccc(C(=O)N[C@H]2CCCNC(=O)[C@@H]3CCCN3C(=O)[C@H]([C@@H](C)O)NC(=O)[C@H](CCc3ccc(O)cc3)NC(=O)[C@@H]3C[C@@H](O)CN3C(=O)[C@H]([C@@H](C)O)NC2=O)cc1 ({Benzoyl(4-octyloxy)}-[Orn]T[Hyp][hTyr]TP; lactam 1-C) | 8 µg/mL (≈ 8.55 µM) | 0.25 µg/mL (≈ 0.267 µM) | 4 µg/mL (≈ 4.27 µM) | 8 µg/mL (≈ 8.55 µM) | 4 µg/mL (≈ 4.27 µM) |
| > 10 µM | CCCCCCCCOc1ccc(C(=O)N[C@H]2CCCNC(=O)[C@@H]3CCCN3C(=O)[C@H]([C@@H](C)O)NC(=O)[C@H](Cc3ccc(O)cc3)NC(=O)[C@@H]3C[C@@H](O)CN3C(=O)[C@H]([C@@H](C)O)NC2=O)cc1 ({Benzoyl(4-octyloxy)}-[Orn]T[Hyp]YTP; lactam 1-C) | > 128 µg/mL | > 128 µg/mL | > 128 µg/mL | – | > 128 µg/mL |
| > 10 µM | CCCCCCCCOc1ccc(C(=O)N[C@H]2CCCNC(=O)[C@@H]3CCCN3C(=O)[C@H]([C@@H](C)O)NC(=O)[C@H](Cc3ccc(O)cc3)NC(=O)[C@@H]3CCCN3C(=O)[C@H]([C@@H](C)O)NC2=O)cc1 ({Benzoyl(4-octyloxy)}-[Orn]TPYTP; lactam 1-C) | – | > 64 µg/mL | > 64 µg/mL | > 64 µg/mL | > 64 µg/mL |
| 3 µM | CCCCCCCCOc1ccc(C(=O)N[C@H]2CCCNC(=O)[C@@H]3[C@@H](O)[C@@H](C)CN3C(=O)[C@H]([C@@H](C)O)NC(=O)[C@H](CCc3ccc(O)cc3)NC(=O)[C@@H]3C[C@@H](O)CN3C(=O)[C@H]([C@@H](C)O)NC2=O)cc1 ({Benzoyl(4-octyloxy)}-[Orn]T[Hyp][hTyr]T[Pro(3S-OH,4S-Me)]; lactam 1-C) | 8 µg/mL (≈ 8.28 µM) | 1 µg/mL (≈ 1.04 µM) | 2 µg/mL (≈ 2.07 µM) | 1 µg/mL (≈ 1.04 µM) | 2 µg/mL (≈ 2.07 µM) |
| > 10 µM | CCCCCCCCOc1ccc(C(=O)N[C@H]2CCCNC(=O)[C@@H]3C[C@@H](O)CN3C(=O)[C@H]([C@@H](C)O)NC(=O)[C@H](Cc3ccc(O)cc3)NC(=O)[C@@H]3CCCN3C(=O)[C@H]([C@@H](C)O)NC2=O)cc1 ({Benzoyl(4-octyloxy)}-[Orn]TPYT[Hyp]; lactam 1-C) | > 128 µg/mL | > 128 µg/mL | > 128 µg/mL | > 128 µg/mL | > 128 µg/mL |
